The target of the test is T1, native carnitine/acylcarnitine carrier (CAC) (Rattus norvegicus, UniProt P97521).
T1 construct: the native protein extracted from rat liver mitochondria; from tissue; host or cells: rat liver mitochondria
T1 sequence (P97521 1-301): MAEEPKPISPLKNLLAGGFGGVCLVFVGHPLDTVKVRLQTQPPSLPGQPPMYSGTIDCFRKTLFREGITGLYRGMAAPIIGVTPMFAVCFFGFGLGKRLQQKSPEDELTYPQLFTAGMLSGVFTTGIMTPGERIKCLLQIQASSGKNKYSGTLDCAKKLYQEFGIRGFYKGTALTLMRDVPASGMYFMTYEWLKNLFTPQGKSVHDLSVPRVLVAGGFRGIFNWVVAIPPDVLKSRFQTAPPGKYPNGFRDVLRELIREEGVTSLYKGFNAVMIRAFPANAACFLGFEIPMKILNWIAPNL
Kind of test: [3H]carnitine/carnitine antiport in proteoliposomes reconstituted with native CAC extracted from rat liver mitochondria. It is filed as biochemical. As to conditions: intact rat liver mitochondria incubated 1 h with CuCl2 (50 µM) or GSH (5 mM), then CAC extracted and reconstituted. As to the method: Figure 2 Dose-response analysis of copper effect on the native CAC. Proteoliposomes reconstituted with the CAC extracted from rat liver mitochondria were incubated with (○) CuCl2 or (●) CuCl at the indicated concentrations for 1 min, and then the transport activity was measured by adding 0.1 mM [^3H]carnitine and stopped after 10 min as described in Materials and Methods. Percent of residual activity with respect to the control, without copper treatment, is reported. The values are the means ± SD from three independent experiments.
The recombinant CAC (WT and mutant) proteins were used for proteoliposome formation as previously described. For the experiments with the native protein, rat liver mitochondria were first purified using the standard procedure of cell disruption and differential centrifugation. […]
Transport was started by adding 0.1 mM [^3H]carnitine to proteoliposome samples and, at the indicated time interval stopped by 1.5 mM NEM. […] After terminating the transport reaction, the external substrate was removed by chromatography on Sephadex G-75 columns, and the intraliposomal radioactivity was measured. Transport was measured at 25 °C. […] Transport rates were measured in 5 min, i.e., within the initial linear range of the time course.

Molecules are shown by their SMILES.

`N[C@@H](CCC(=O)N[C@@H](CS)C(=O)NCC(=O)O)C(=O)O` [GSH, reduced glutathione]: the “effect on transport with respect to protein from untreated mitochondria” value is “did not exert any appreciable effect”.

The values above are taken from publication PMC7070283, “Effect of Copper on the Mitochondrial Carnitine/Acylcarnitine Carrier Via Interaction with Cys136 and Cys155. Possible Implications in Pathophysiology” (Molecules, 2020).
